Results reported in patent US20250129328A1, “AN ISOLATED S. SALIVARIUS STRAIN AND ITS USE AS AN ANTIMICROBIAL PRODUCING PROBIOTIC” (priority 2021, published 2025).
Ends that are not written are not given here.

How the values were obtained:
F. nucleatum DSM15643 = assay: Well diffusion assay (WDA) of purified nisin peptides; type: cell-based, Fusobacterium nucleatum; set-up: dose or concentration left out as unconfirmed
L. bulgaricus DPC5383 = assay: Well diffusion assay (WDA) of purified nisin peptides and CFS; type: cell-based, Lactobacillus delbrueckii ssp. bulgaricus; set-up: dose or concentration left out as unconfirmed; conditions: semi-pure nisin G and pure nisin A
Procedure: The culture was centrifuged at 7,871 g for 20 minutes and cells separated from the supernatant. The cell pellet was resuspended in 300 ml of 70% 2 propanol 0.1% TFA (IPA) and stirred at room temperature for 3-4 hours. The resulting suspension was centrifuged again, and the supernatant retained for purification of the antimicrobial. […] The IPA was removed by rotary evaporation and the sample applied to a 12 ml, 2 g Strata-E C18 SPE column pre-equilibrated (Phenomenex, Cheshire, UK) with methanol and water. The column was washed with 24 ml 30% ethanol and then 24 ml 70% 2-propanol 0.1% TFA. […] The IPA was removed from the C18 SPE IPA eluent by rotary evaporation (Buchi Labortechnik AG; Flawil, Switzerland) and the resulting sample applied to a semi prep Jupiter Proteo (10×250 mm, […], 90 Å) Reversed Phase HPLC column running a 30-50% acetonitrile 0.1% TFA gradient at 2.5 mL/min where buffer A was 0.1% TFA and buffer B was 100% acetonitrile 0.1% TFA. […] Bioactive fractions were pooled and lyophilized using a Genevac lyophiliser (Suffolk, UK).

Substance	Zone of inhibition (area of zone of inhibition minus area of well) (F. nucleatum DSM15643) [mm^2]	Antimicrobial activity, comparison of size of zones of inhibition (in words) (L. bulgaricus DPC5383)
nisin A (ITSISLCTPGCKTGALMGCNMKTATCHCSIHVSK; also: lantibiotic, modified residues and rings not given here; UniProt P13068 24-57, looked up) [prototypical broad spectrum lantibiotic, purified from nisinA®P (Handary) by reversed phase HPLC, reference compound]	395.8	
nisin G	37.7	less than nisin A
